One data set has as its target S. aureus TopoIV enzyme (Staphylococcus aureus, UniProt P0C1S7). Kind of data set: DNA Topo IV ATPase Assay. The data set is classed as biochemical. As for the experimental part:
The conversion of ATP to ADP by S. aureus TopoIV enzyme was coupled to the conversion of NADH to NAD+, and the progress of the reaction was measured by the change in absorbance at 340 nm. TopoIV (64 nM) was incubated with the selected compound (3% DMSO final) in buffer for 10 minutes at 30° C. The buffer consisted of 100 mM Tris 7.5, 1.5 mM MgCl2, 200 mM K·Glutamate, 2.5 mM phosphoenol pyruvate, 0.2 mM NADH, 1 mM DTT, 5 μg/mL linearized DNA, 50 μg/mL BSA, 30 μg/mL pyruvate kinase, and 10 μg/mL lactate dehyrodgenase (LDH). The reaction was initiated with ATP, and rates were monitored continuously for 20 minutes at 30° C. on a Molecular Devices SpectraMAX plate reader. The inhibition constant, Ki, was determined from plots of rate vs. concentration of selected compound fit to the Morrison Equation for tight binding inhibitors.

A further data set in a line: Aqueous Solubility Study. The data set is classed as physicochemical. To be noted: aqueous buffer, thermodynamic from solid; water, pH adjusted with 1.0N HCl, stirred 96 hours at room temperature, filtered, HPLC; filtrate pH per compound (23: >3.0; X: 4.41; Y: 3.01; Z: 4.35). Here is the method: The aqueous solubilities of compounds 23, X, Y, and Z were determined according to the following procedure.
Aqueous samples of each compound were prepared as follows. Compounds were weighed (20-30 mg compound) in 4 ml clear vials prior to adding water (0.5 mL) and stirring by magnetic stirrer. 1.0N HCl was added to the suspension to adjust the pH to the desired range. After stirring for 96 hours at room temperature, the suspension was filtered through a 0.22 micron filter (Millipore, Ultrafree centrifugal filters, Durapore PVDF 0.22 μm, Cat# UFC30GVNB). The filtrate was collected and the pH measured with a pH meter. The filtrates containing compounds X and Z were diluted 100-fold and 400-fold, respectively, to provide an appropriate concentration for HPLC analysis.
Standard solutions of each compound were prepared according to the following procedure. 1 to 2 mg of each compound was accurately weighed into a 10 mL volumetric flask and either water (for compounds X and Z), methanol (for compound Y), or 1:1 methanol:0.1N HCl (for compound 23) was added to completely dissolve the compounds. Sonication was performed for compound 23 to assist with the dissolution in 1:1 methanol:0.1N HCl. When all solids dissolved, additional solvent was added to adjust the volume of each solution to 10 ml. The resulting solutions were thoroughly mixed to give the standard solutions of each compound. Each standard solution was then diluted with solvent by 2-fold, 10-fold, and 100-fold.
Aliquots of each sample and each standard solution were analyzed by HPLC analysis (Agilent 1100, injection volume 10 μL, wavelength 271 nm, column XTerra® Phenyl 5 μm, 4.6×50 mm, Part No. 186001144, mobile phase: A: 0.1% TFA in water 0.1% TFA in AcN). Each standard solution was injected three times, and each of the samples was injected twice. Standard curves were obtained by plotting the average of the peak area from the HPLC versus the concentrations of the standard solutions (with appropriate corrections of the weights of the standards based on total water content of the solid as determined by elemental analysis). The concentration of each sample was calculated from the peak area of the aqueous sample from the HPLC results and the slope and intercept of the standard curves. The solubility values listed in Table 3 below were derived from the product of the concentration of the sample and the dilution factor of the sample.

Another data set addresses S. aureus DNA gyrase (Staphylococcus aureus, UniProt P0A0K8). In words: DNA Gyrase ATPase Assay. The data set is classed as biochemical. To be noted: coupled ATPase assay, 30° C., 90 nM enzyme, 0.9 mM ATP; read-out: Ki, Inhibition of S. aureus DNA Gyrase. Here is the method: The ATP hydrolysis activity of S. aureus DNA gyrase was measured by coupling the production of ADP through pyruvate kinase/lactate dehydrogenase to the oxidation of NADH. This method has been described previously (Tamura and Gellert, 1990, J. Biol. Chem., 265, 21342).
ATPase assays were carried out at 30° C. in buffered solutions containing 100 mM TRIS pH 7.6, 1.5 mM MgCl2, 150 mM KCl. The coupling system contains final concentrations of 2.5 mM phosphoenol pyruvate, 200 μM nicotinamide adenine dinucleotide (NADH), 1 mM DTT, 30 ug/ml pyruvate kinase, and 10 ug/ml lactate dehydrogenase. The enzyme (90 nM final concentration) and a DMSO solution (3% final concentration) of the selected compound were added. The reaction mixture was allowed to incubate for 10 minutes at 30° C. The reaction was initiated by the addition of ATP to a final concentration of 0.9 mM, and the rate of NADH disappearance was monitored at 340 nanometers over the course of 10 minutes. The Ki values were determined from rate versus concentration profiles.

Where [1] appears, read: coupled ATPase assay, 30° C., 64 nM TopoIV, Morrison Equation fit, read-out: Ki, Inhibition of S. aureus DNA Topo IV.

Where two headings read alike, the source gives them in different places. Some results are limits rather than exact numbers.

Four molecules from US9125922B2, “Phosphate esters of gyrase and topoisomerase inhibitors” (priority 2011, dated 2015) can be followed below.

S. aureus DNA gyrase, sequence (P0A0K8 whole entry): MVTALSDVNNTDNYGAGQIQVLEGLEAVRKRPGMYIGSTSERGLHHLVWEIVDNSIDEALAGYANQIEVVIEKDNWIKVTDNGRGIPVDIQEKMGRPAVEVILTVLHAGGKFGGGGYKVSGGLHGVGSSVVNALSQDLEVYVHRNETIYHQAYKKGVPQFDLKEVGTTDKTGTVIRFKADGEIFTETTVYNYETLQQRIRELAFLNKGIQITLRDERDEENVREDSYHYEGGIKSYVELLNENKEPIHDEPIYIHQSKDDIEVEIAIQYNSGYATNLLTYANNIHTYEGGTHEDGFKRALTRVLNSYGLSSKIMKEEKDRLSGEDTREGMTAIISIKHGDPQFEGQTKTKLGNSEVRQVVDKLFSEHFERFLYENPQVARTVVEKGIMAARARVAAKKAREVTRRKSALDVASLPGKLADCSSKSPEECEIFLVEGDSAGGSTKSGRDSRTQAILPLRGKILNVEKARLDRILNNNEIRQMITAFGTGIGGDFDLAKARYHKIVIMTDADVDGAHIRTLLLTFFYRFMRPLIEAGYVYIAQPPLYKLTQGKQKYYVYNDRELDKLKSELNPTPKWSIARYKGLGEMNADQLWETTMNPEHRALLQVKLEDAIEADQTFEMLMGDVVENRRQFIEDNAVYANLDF
S. aureus DNA gyrase, sequence (P20831 whole entry partner): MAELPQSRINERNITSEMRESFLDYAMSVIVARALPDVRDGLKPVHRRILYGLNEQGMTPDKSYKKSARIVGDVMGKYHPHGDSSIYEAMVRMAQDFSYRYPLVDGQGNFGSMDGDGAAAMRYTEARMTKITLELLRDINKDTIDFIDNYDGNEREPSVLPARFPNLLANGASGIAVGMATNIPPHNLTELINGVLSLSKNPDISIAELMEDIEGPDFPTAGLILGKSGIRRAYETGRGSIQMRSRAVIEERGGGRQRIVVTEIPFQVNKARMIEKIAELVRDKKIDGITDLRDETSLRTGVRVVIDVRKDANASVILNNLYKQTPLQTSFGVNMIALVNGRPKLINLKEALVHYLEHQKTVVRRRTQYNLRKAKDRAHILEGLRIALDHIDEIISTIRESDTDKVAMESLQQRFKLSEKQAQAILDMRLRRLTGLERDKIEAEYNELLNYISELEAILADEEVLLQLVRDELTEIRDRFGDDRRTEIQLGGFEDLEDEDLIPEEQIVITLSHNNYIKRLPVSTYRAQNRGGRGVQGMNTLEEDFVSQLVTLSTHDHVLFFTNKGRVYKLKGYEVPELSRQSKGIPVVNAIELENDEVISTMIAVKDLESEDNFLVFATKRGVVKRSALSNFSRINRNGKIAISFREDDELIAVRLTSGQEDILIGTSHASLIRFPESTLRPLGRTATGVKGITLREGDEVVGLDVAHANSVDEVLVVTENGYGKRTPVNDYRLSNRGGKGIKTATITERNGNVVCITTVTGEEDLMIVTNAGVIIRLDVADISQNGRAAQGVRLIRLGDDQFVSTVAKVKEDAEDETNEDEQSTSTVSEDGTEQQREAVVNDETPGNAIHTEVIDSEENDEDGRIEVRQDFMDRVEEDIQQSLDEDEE
S. aureus TopoIV enzyme, sequence (P0C1S7 whole entry): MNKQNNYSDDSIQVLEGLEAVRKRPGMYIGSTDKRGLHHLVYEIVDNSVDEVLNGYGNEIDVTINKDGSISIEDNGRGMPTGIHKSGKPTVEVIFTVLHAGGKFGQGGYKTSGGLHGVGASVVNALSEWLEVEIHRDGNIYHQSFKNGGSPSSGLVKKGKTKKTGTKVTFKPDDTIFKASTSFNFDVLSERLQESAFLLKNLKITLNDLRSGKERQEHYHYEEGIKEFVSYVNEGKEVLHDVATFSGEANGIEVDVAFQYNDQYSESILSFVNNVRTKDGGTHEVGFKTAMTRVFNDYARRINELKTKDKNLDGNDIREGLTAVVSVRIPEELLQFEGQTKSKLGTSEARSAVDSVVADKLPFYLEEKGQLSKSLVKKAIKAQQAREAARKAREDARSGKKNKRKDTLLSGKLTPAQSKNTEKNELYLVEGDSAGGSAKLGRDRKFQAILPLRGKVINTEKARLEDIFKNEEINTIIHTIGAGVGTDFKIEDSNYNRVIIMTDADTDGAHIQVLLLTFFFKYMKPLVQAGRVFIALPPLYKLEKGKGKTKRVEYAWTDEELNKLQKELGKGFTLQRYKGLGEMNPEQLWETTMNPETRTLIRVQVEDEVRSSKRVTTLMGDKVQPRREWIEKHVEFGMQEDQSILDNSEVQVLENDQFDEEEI
S. aureus TopoIV enzyme, sequence (P0C1U9 whole entry partner): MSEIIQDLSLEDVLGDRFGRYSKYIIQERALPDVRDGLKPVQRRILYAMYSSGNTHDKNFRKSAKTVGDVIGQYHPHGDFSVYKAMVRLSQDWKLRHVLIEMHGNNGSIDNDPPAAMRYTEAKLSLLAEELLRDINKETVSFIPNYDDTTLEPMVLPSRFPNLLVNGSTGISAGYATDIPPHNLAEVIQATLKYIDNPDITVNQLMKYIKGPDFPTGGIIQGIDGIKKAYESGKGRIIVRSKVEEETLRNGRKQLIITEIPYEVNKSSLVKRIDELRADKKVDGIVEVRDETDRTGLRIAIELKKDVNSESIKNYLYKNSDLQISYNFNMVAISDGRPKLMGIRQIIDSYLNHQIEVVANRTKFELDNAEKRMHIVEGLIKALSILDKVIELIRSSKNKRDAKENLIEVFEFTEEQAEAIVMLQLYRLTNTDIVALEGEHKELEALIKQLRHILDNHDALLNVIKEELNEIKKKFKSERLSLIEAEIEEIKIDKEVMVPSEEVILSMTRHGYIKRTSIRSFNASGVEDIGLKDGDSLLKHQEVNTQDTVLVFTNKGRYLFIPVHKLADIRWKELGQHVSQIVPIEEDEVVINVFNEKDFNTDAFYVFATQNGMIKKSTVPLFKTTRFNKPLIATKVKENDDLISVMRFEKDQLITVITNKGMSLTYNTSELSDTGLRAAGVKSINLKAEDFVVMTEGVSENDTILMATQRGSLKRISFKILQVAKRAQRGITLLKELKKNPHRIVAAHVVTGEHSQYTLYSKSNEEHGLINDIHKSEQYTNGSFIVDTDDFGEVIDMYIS

Consider `CCCCCCCCCCCCCCCCOP(=O)(O)OC(C)(C)c1ncc(-c2cc3nc(NC(=O)NCC)[nH]c3c([C@H]3CCCO3)c2F)cn1` [Compound Y, ammonium (R)-2-(5-(2-(3-ethylureido)-6-fluoro-7-(tetrahydrofuran-2-yl)-1H-benzo[d]imidazol-5-yl)pyrimidin-2-yl)propan-2-yl hexadecyl phosphate], for which the Ki at S. aureus TopoIV enzyme (setting [1]) came out at 24 nM; on S. aureus DNA gyrase it was 13 nM. This molecule showed a solubility at 96 h in the data set “Aqueous Solubility Study” of less than 0.001 mg/mL.

As for `CCNC(=O)Nc1nc2cc(-c3cnc(C(C)(C)O)nc3)c(F)c([C@H]3CCCO3)c2[nH]1` [Compound 23, (R)-1-ethyl-3-(6-fluoro-5-(2-(2-hydroxypropan-2-yl)pyrimidin-5-yl)-7-(tetrahydrofuran-2-yl)-1H-benzo[d]imidazol-2-yl)urea], on S. aureus TopoIV enzyme, the Ki turned out to be 9 nM. The solubility at 96 h in “Aqueous Solubility Study” is less than 0.001 mg/mL.

In the case of `CCNC(=O)Nc1nc2cc(-c3cnc(C(C)(C)OP(=O)(O)OCCOCCOC)nc3)c(F)c([C@H]3CCCO3)c2[nH]1` [Compound X, ammonium (R)-2-(5-(2-(3-ethylureido)-6-fluoro-7-(tetrahydrofuran-2-yl)-1H-benzo[d]imidazol-5-yl)pyrimidin-2-yl)propan-2-yl 2-(2-methoxyethoxy)ethyl phosphate], the Ki on S. aureus TopoIV enzyme (setting [1]) was 45 nM; at S. aureus DNA gyrase it was less than 9 nM. This molecule returned a solubility at 96 h in the data set “Aqueous Solubility Study” of 12.7 mg/mL.

Turning to `CCNC(=O)Nc1nc2cc(-c3cnc(C(C)(C)OP(=O)(O)OCCN4CCOCC4)nc3)c(F)c([C@H]3CCCO3)c2[nH]1` [Compound Z, 2-(5-(2-(3-ethylureido)-6-fluoro-7-((R)-tetrahydrofuran-2-yl)-1H-benzo[d]imidazol-5-yl)pyrimidin-2-yl)propan-2-yl 2-morpholinoethyl hydrogen phosphate], the results for the Ki at S. aureus TopoIV enzyme (setting [1]) and on S. aureus DNA gyrase were 80 nM and less than 9 nM, respectively. In “Aqueous Solubility Study”, this molecule showed a solubility at 96 h greater than 41 mg/mL.

As a reminder, the Ki is a measure of affinity in units of concentration, obtained from inhibition or displacement. The term solubility denotes how much of the substance goes into solution per volume. A low value points to little dissolved substance.
